Measurements: patent publication US11318133B2, “Modulators of integrated stress response pathway” (Praxis Biotech LLC, priority 2019, dated 2022)

Experiments:
ATF4 = ATF4 expression inhibition assay (ATF4 luciferase reporter, thapsigargin-stressed); assay type: cell-based; conditions: Homo sapiens, HEK-293T; HEK293T cells carrying ATF4 luciferase reporter, 100 nM thapsigargin, 3 hours
Description: The ATF4 reporter was prepared by fusing the human full length 5′UTR of ATF4 (NCBI Accession No. BC022088.2) upstream of the firefly luciferase coding sequence lacking the initiator methionine. The fused sequence was cloned into pLenti-EF1a-C-Myc-DDK-IRES-Puro cloning vector (Origen #PS100085) using standard methods. Virus production was carried out by using Lenti-X™ Packaging Single Shots Protocol (Clonetech #631276). Viral particles were used to transduce HEK293T cells (ATCC #CRL-3216, ATCC Manassas, Va.), which were subsequently selected with puromycin to generate stable cell line. Cells were maintained at 37° C. and 5% CO2 in DMEM-F12 (Hyclone #SH30023.02) supplemented with 10% heat-inactivated fetal bovine serum (Gibco #16000-044), 2 mM L-glutamine (Gibco #25030-081), 100 U/ml penicillin, and 100 μg/ml streptomycin (Gibco #15140-122).
HEK293T cells carrying the ATF4 luciferase reporter were plated on 96-well plates (Nunc) at 10,000 cells per well. Cells were treated two days after seeding with 100 nM thapsigargin (Tg) (Sigma-Aldrich #T9033) in the presence of different concentrations of selected compounds ranging from 1 nM to […]. Cells without treatment or cells treated with Tg alone were used as controls. Assay plates containing cells were incubated for 3 hours at 37° C.
Luciferase reactions were performed using Luciferase Assay System (Promega #E1501) as specified by the manufacturer. Luminescence was read with an integration time of 1 s and a gain of 110 using a Cytation-5 multi-mode microplate reader (BioTek). Relative luminescence units were normalized to Tg treatment (0% inhibition) and untreated cells (100% inhibition) and the percentage of ATF4 inhibition was calculated.
Accordingly, inhibition of ATF4 expression as a result of the test compound indicates suppression of the ISR pathway.

[1] = system: Chinese hamster ovary (CHO) cells; test: Protein synthesis assay (puromycin incorporation, western blot); assay type: cell-based; conditions: without Tg, 2 hours, media alone = 100%
Description: Chinese hamster ovary (CHO) cells were maintained at 37° C. and 5% CO2 in Dulbecco's Modified Eagle's Media (DMEM) supplemented with 10% fetal bovine serum, 2 mM L-glutamine, 100 U/ml penicillin, and 100 μg/ml streptomycin. After reaching 80% of confluence, cells were detached and seeded on 6 well plates in complete media, allowed to recover overnight and treated for 2 hours with 1 μM of the test compound (to assess protein synthesis levels in unstressed condition), or for 2 hours with 300 nM Tg in the presence of 1 μM of the test compound (to assess the recovery of protein synthesis in a stressed condition). Cells with Tg alone were used as controls.
After the 2 hours treatments, media were replaced by adding 10 μg/ml puromycin (Sigma Aldrich #P8833) in complete media for 30 min. Media were removed and cells were lysed with SDS-PAGE lysis buffer. Lysates were transferred to 1.5 ml tubes and sonicated for 3 min and total protein amount were quantified using BCA Protein Assay Kit (Pierce). Equal amount of protein (30 μg) was loaded on SDS-PAGE gels. Proteins were transferred onto […] PVDF membranes (BioRad) and probed with primary antibodies diluted in Tris-buffered saline supplemented with 0.1% Tween 20 (Merck #S6996184 505) and 3% bovine serum albumin (Rockland #BSA-50).
(§1) Puromycin (12D10) (Merck #MABE343) and 3-actin (Sigma Aldrich #A5441) antibodies were used as primary antibody. A HRP-conjugated secondary antibody (Rockland) was employed to detect immune-reactive bands using enhanced chemiluminescence (ECL Western Blotting Substrate, Pierce). Quantification of protein bands was done by densitometry using ImageJ software.
Percent increase of protein synthesis in unstressed cells (without Tg treatment) in the presence of media alone or certain test compounds is shown in Table 3. The percentage levels were normalized to the media alone condition, which correspond to 100% protein synthesis.
Percent recovery of protein synthesis in stressed cells (with Tg treatment) due to the test compounds at 1 μM is also shown in Table 3. The levels were normalized to the media alone and Tg alone conditions, which correspond to 100% and 0% respectively.

Balb/c mice = test: Fasting-induced muscle atrophy, in vivo protein synthesis; conditions: 10 mg/kg oral, 2 days fasting, versus vehicle-treated fasted mice; FIG. 1
Description: Wild type eight-weeks-old male Balb/c mice obtained from the vivarium Fundaciön Ciencia & Vida Chile (Santiago, Chile) are used. Mice were housed in independent plastic cages in a room maintained at 25° C. with a 12-h:12-h light:dark cycle. […]
Upon collection, muscles were immediately frozen in liquid nitrogen and then stored at −80° C. […] Protein concentration in supernatants was determined using BCA Protein Assay Kit (Pierce). […]
as §1, with “Millipore,” for “#MABE343)”, “β-actin (Sigma-Aldrich)” for “3-actin (Sigma Aldrich #A5441)”, “antibodies.” for “antibody.”
Percent of protein synthesis in tibialis anterior of each mouse from fed or fasted animals treated with vehicle or compound 3 is shown in FIG. 1. The levels were normalized to β-actin expression and percentage was calculated as the percent relative to protein synthesis levels from control mice (Fed) which correspond to 100%.

SMILES	IC50 (ATF4)	% Protein synthesis in unstressed cells (1 μM test compound) [1]	Protein synthesis in tibialis anterior of fasted mice (Balb/c mice)
O=C(NN1CCN(C[C@H](O)COc2ccc(Cl)c(F)c2)CC1)c1cn(C2CC2)c2cc(Cl)c(F)cc2c1=O [Compound 6, (S)-7-chloro-N-(4-(3-(4-chloro-3-fluorophenoxy)-2-hydroxypropyl)piperazin-1-yl)-1-cyclopropyl-6-fluoro-4-oxo-1,4-dihydroquinoline-3-carboxamide]	> 10 µM	244.5%	
O=C(NC1CCN(C[C@@H](O)COc2ccc(Cl)c(F)c2)CC1)c1cn(C2CC2)c2cc(Cl)c(F)cc2c1=O [Compound 2, (R)-7-chloro-N-(1-(3-(4-chloro-3-fluorophenoxy)-2-hydroxypropyl)piperidin-4-yl)-1-cyclopropyl-6-fluoro-4-oxo-1,4-dihydroquinoline-3-carboxamide]	> 10 µM	336.3%	
O=C(NC1CCN(CC(O)COc2ccc(Cl)c(F)c2)CC1)c1cn(C2CC2)c2cc(Cl)c(F)cc2c1=O (centres unmarked) [Compound 1, 7-chloro-N-(1-(3-(4-chloro-3-fluorophenoxy)-2-hydroxypropyl)piperidin-4-yl)-1-cyclopropyl-6-fluoro-4-oxo-1,4-dihydroquinoline-3-carboxamide]	> 10 µM	336.9%	
O=C(NN1CCN(C[C@@H](O)COc2ccc(Cl)c(F)c2)CC1)c1cn(C2CC2)c2cc(Cl)c(F)cc2c1=O [Compound 5, (R)-7-chloro-N-(4-(3-(4-chloro-3-fluorophenoxy)-2-hydroxypropyl)piperazin-1-yl)-1-cyclopropyl-6-fluoro-4-oxo-1,4-dihydroquinoline-3-carboxamide]	> 10 µM	173.2%	
O=C(NC1CCN(C[C@H](O)COc2ccc(Cl)c(F)c2)CC1)c1cn(C2CC2)c2cc(Cl)c(F)cc2c1=O [Compound 3, (S)-7-chloro-N-(1-(3-(4-chloro-3-fluorophenoxy)-2-hydroxypropyl)piperidin-4-yl)-1-cyclopropyl-6-fluoro-4-oxo-1,4-dihydroquinoline-3-carboxamide]	> 10 µM	397.3%	improvement in protein synthesis in muscles
